Experiments:
[1] = fluorescence of heat sterilised NAG containing solutions; format: physicochemical; details: terminally heat sterilised solution, excitation 350 nm, emission 430 nm, FIG. 3
Source text: (§1) A simple, reliable and known way to study the cytotoxicity of substances or of medical fluids is to test proliferation as in vitro inhibition of cell growth (ICG) in cultured cells. Another method to get a rough estimation of the amount of amino sugars that is rearranged is measurement of the fluorescence.

cultured cells = experiment: in vitro inhibition of cell growth (ICG) in cultured cells; format: cell-based
Source text: Experiments in which measurements of the percentage of inhibition of cell growth (ICG) and fluorescence have been made at varying pH values and NAG concentrations during terminal heat sterilisation are illustrated in FIGS. 1-3. The results of the experiments imply that the pH of the amino sugar containing solution should be decreased from the neutral level and that, in a preferred embodiment of the invention, also the concentration of the amino sugar/sugars should be optimised.
as §1

peritoneum = details: rats, chronic peritoneal dialysis; cited from earlier work
[2] = tested on: human peritoneal mesothelial cells and fibroblasts; details: cited from earlier work
[3] = degradation during heat sterilisation (pH change, HPLC of 3-DG and 3,4-DGE); format: physicochemical
Source text: NAG and other amino sugars have a major difference from glucose and glucose-like compounds by having one amino group and possibly an acetyl group coupled to the glucose ring. […] It should be noted that the decomposition pattern for an amino sugar solution during heat sterilisation follows specific Maillard reactions giving several different toxic decomposition products. The decomposition pattern differs for e.g. a glucose solution during heat sterilisation, wherein different decomposition products are formed. This difference is illustrated in FIGS. 4a-4d, showing chromatograms when analysing 3-DG and 3,4-DGE in a NAG solution and in a glucose solution, respectively. The difference in degradation is likely due to that the NAG molecules contains groups that allows the Maillard reaction to take place and therefore create a large number of degradation products not seen in a glucose solution.

pH at which the lowest fluorescence is seen [1] | change of pH of the solution during sterilisation [3] | Compound | percentage inhibition of cell growth, effect of NAG concentration (cultured cells; NAG 30% vs 1.5% during terminal heat sterilisation, all three pH values, FIG. 2) | cytotoxicity after heat sterilisation (cultured cells; conventional medical solutions) | pH of sterilisation at which inhibition of cell growth reaches a minimum (cultured cells; solution containing 1.5% NAG, FIG. 1) | percentage inhibition of cell growth, effect of pH (cultured cells; terminal heat sterilisation at pH 3.0, 5.5 and 7.2, FIG. 2) | effect on the peritoneum of a supplemented dialysis solution (peritoneum) | production of hyaluronan and sulphated glycosaminoglycans [2] | known glucose degradation products in heat sterilised solution ([3]; heat sterilised NAG solutions)
~4 | increases during sterilisation | CC(=O)N[C@H]1C(O)O[C@H](CO)[C@@H](O)[C@@H]1O (stereo partly shown) [NAG, N-acetylglucosamine] | lower after a terminal heat sterilisation at a NAG concentration of 30% than at a NAG concentration of 1.5% | increased cytotoxicity after heat sterilisation | 2.5-3.5 | lower after terminal heat sterilisation at a pH of 3.0 than at a pH of 5.5 and 7.2 | causes accumulation of glucosaminoglycans in the peritoneal interstitium, resulting in a favorable change of the peritoneal permeability | rapidly stimulates the production of hyaluronan and sulphated glycosaminoglycans | none of the known glucose degradation products has been found
– | – | hyaluronan [reference compound] | – | – | – | – | function of the peritoneum as a dialysis membrane is better preserved | – | –

Source: US9918999B2, “Method for preparing a medical solution for the manufacture of a medicament for peritoneal dialysis” (FRESENIUS MEDICAL CARE DEUTSCHLAND GMBH, priority 2002, dated 2018)
